Data reported in US20230263822A1, “MODULATION OF FACTOR 11 EXPRESSION” (Ionis Pharmaceuticals, Inc., priority 2008, published 2023).

Assay: Hematology assays in cynomolgus monkeys (Example 45)
Format: in vivo
Method: Groups, each consisting of two male and three female monkeys, were injected subcutaneously with ISIS 416838, ISIS 416850, ISIS 416858, ISIS 416864, or ISIS 417002 in escalating doses. Antisense oligonucleotide was administered to the monkeys at 5 mg/kg three times per a week for week 1; 5 mg/kg twice per week for weeks 2 and 3; 10 mg/kg three times per week for week 4; 10 mg/kg twice per week for weeks 5 and 6; 25 mg/kg three times per week for week 7; and 25 mg/kg twice per week for weeks 8, 9, 10, 11, and 12. One control group, consisting of two male and three female monkeys, was injected subcutaneously with PBS according to the same dosing regimen. An additional experimental group, consisting of two male and three female monkeys, was injected subcutaneously with ISIS 416850 in a chronic, lower dose regimen. Antisense oligonucleotide was administered to the monkeys at 5 mg/kg three times per week for week 1; 5 mg/kg twice per week for week 2 and 3; 10 mg/kg three times per week for week 4; and 10 mg/kg twice per week for weeks 5 to 12. Body weights were measured weekly. Blood samples were collected 14 days and 5 days before the start of treatment and subsequently once per week for Factor 11 protein activity analysis in plasma, fibrinogen measurement, PT and aPTT measurements, bleeding times, and measurement of various hematologic factors. On day 85, the monkeys were euthanized by exsanguination while under deep anesthesia, and organs harvested for further analysis.
The ISIS oligonucleotide, ISIS 416850, given with the chronic dose regimen is distinguished from the other oligonucleotides with an asterisk (*).

[1] = day 43, chronic dose regimen (*)
[2] = day 43, escalating dose regimen
[3] = day 50, chronic dose regimen (*)
[4] = day 50, escalating dose regimen
[5] = day 57, escalating dose regimen
[6] = day 64, escalating dose regimen
[7] = day 71, escalating dose regimen
[8] = day 78, escalating dose regimen
[9] = day 85, escalating dose regimen
[10] = day −5, chronic dose regimen (*)
[11] = day −5, escalating dose regimen
[12] = day −14, chronic dose regimen (*)
[13] = day −14, escalating dose regimen

ISIS 416850: MOE gapmer, nucleobases 1275 to 1318 of SEQ ID NO: 1 (Table 8) (antisense TGCACAGTTTCTGGCAGGCC; MOE gapmer, wing and gap sizes not given here)
monocytes [1]: 1.8%
neutrophils [1]: 61%
platelet count [1]: 391000 µL⁻¹
reticulocytes [1]: 1.0%
MCH [2]: 23 pg
MCHC [2]: 29 g/dL
MCV [2]: 79 fL
RBC count [2]: 5.2e+06 µL⁻¹
WBC count [2]: 9000 µL⁻¹
hematocrit [2]: 40%
hemoglobin [2]: 11.8 g/dL
basophils (day 50): 0.3%
eosinophils (day 50): 1.2%
lymphocytes (day 50): 49%
monocytes (day 50): 3.7%
neutrophils (day 50): 45%
platelet count (day 50): 487000 µL⁻¹
reticulocytes (day 50): 2.7%
MCH [3]: 23 pg
MCHC [3]: 29 g/dL
MCV [3]: 80 fL
RBC count [3]: 5.3e+06 µL⁻¹
WBC count [3]: 15000 µL⁻¹
basophils [3]: 0.2%
eosinophils [3]: 0.3%
hematocrit [3]: 42%
hemoglobin [3]: 11.9 g/dL
lymphocytes [3]: 35%
monocytes [3]: 1.8%
neutrophils [3]: 62%
platelet count [3]: 351000 µL⁻¹
reticulocytes [3]: 1.2%
MCH [4]: 23 pg
MCHC [4]: 28 g/dL
MCV [4]: 83 fL
RBC count [4]: 5.2e+06 µL⁻¹
WBC count [4]: 11000 µL⁻¹
hematocrit [4]: 42%
hemoglobin [4]: 11.8 g/dL
basophils (day 57): 0.4%
eosinophils (day 57): 1.0%
lymphocytes (day 57): 45%
monocytes (day 57): n.d.3.2%
neutrophils (day 57): 49%
platelet count (day 57): 528000 µL⁻¹
reticulocytes (day 57): 2.0%
MCH [5]: 23 pg
MCHC [5]: 29 g/dL
MCV [5]: 80 fL
RBC count [5]: 5.2e+06 µL⁻¹
WBC count [5]: 11000 µL⁻¹
hematocrit [5]: 42%
hemoglobin [5]: 12.1 g/dL
basophils (day 64): 0.4%
eosinophils (day 64): 1.3%
lymphocytes (day 64): 53%
monocytes (day 64): n.d.3.5%
neutrophils (day 64): 41%
platelet count (day 64): 496000 µL⁻¹
reticulocytes (day 64): 1.7%
MCHC [6]: 29 g/dL
MCV [6]: 79 fL
RBC count [6]: 5.4e+06 µL⁻¹
WBC count [6]: 11000 µL⁻¹
hematocrit [6]: 43%
hemoglobin [6]: 12.3 g/dL
basophils (day 71): 0.3%
eosinophils (day 71): 1.8%
lymphocytes (day 71): 61%
monocytes (day 71): n.d.4.7%
neutrophils (day 71): 27%
platelet count (day 71): 465000 µL⁻¹
reticulocytes (day 71): 1.8%
MCHC [7]: 28 g/dL
MCV [7]: 80 fL
RBC count [7]: 5.4e+06 µL⁻¹
WBC count [7]: 15000 µL⁻¹
hematocrit [7]: 43%
hemoglobin [7]: 12.3 g/dL
basophils (day 78): 0.3%
eosinophils (day 78): 1.0%
lymphocytes (day 78): 51%
monocytes (day 78): n.d.4.5%
neutrophils (day 78): 42%
platelet count (day 78): 449000 µL⁻¹
reticulocytes (day 78): 1.8%
MCHC [8]: 29 g/dL
MCV [8]: 79 fL
RBC count [8]: 5.3e+06 µL⁻¹
WBC count [8]: 12000 µL⁻¹
hematocrit [8]: 41%
hemoglobin [8]: 12.2 g/dL
basophils (day 85): 0.3%
eosinophils (day 85): 1.2%
lymphocytes (day 85): 34%
monocytes (day 85): n.d.3.5%
neutrophils (day 85): 60%
platelet count (day 85): 458000 µL⁻¹
reticulocytes (day 85): 2.3%
MCHC [9]: 30 g/dL
MCV [9]: 77 fL
RBC count [9]: 5.5e+06 µL⁻¹
WBC count [9]: 15000 µL⁻¹
hematocrit [9]: 42%
hemoglobin [9]: 12.7 g/dL
basophils (day −5): 0.2%
eosinophils (day −5): 1.6%
lymphocytes (day −5): 43%
monocytes (day −5): 2.8%
neutrophils (day −5): 52%
platelet count (day −5): 573000 µL⁻¹
reticulocytes (day −5): 1.2%
MCH [10]: 23 pg
MCHC [10]: 30 g/dL
MCV [10]: 78 fL
RBC count [10]: 5.5e+06 µL⁻¹
WBC count [10]: 15000 µL⁻¹
basophils [10]: 0.3%
eosinophils [10]: 0.7%
hematocrit [10]: 43%
hemoglobin [10]: 12.8 g/dL
lymphocytes [10]: 43%
monocytes [10]: 2.4%
neutrophils [10]: 53%
platelet count [10]: 434000 µL⁻¹
reticulocytes [10]: 0.8%
MCH [11]: 23 pg
MCHC [11]: 30 g/dL
MCV [11]: 77 fL
RBC count [11]: 5.5e+06 µL⁻¹
WBC count [11]: 13000 µL⁻¹
hematocrit [11]: 43%
hemoglobin [11]: 12.7 g/dL
basophils (day −14): 0.2%
eosinophils (day −14): 1.0%
lymphocytes (day −14): 47%
monocytes (day −14): 2.3%
neutrophils (day −14): 49%
platelet count (day −14): 528000 µL⁻¹
reticulocytes (day −14): 1.7%
MCH [12]: 24 pg
MCHC [12]: 29 g/dL
MCV [12]: 81 fL
RBC count [12]: 5.5e+06 µL⁻¹
WBC count [12]: 15000 µL⁻¹
basophils [12]: 0.2%
eosinophils [12]: 0.5%
hematocrit [12]: 44%
hemoglobin [12]: 12.8 g/dL
lymphocytes [12]: 47%
monocytes [12]: 2.9%
neutrophils [12]: 48%
platelet count [12]: 387000 µL⁻¹
reticulocytes [12]: 1.1%
MCH [13]: 23 pg
MCHC [13]: 30 g/dL
MCV [13]: 78 fL
RBC count [13]: 5.3e+06 µL⁻¹
WBC count [13]: 13000 µL⁻¹
hematocrit [13]: 41%
hemoglobin [13]: 12.4 g/dL
